Experimental data published in ChEMBL document CHEMBL6153034, “Synthesis of dolutegravir derivatives modified by 1,2,3-triazole structure and their anti-inflammatory activity in LPS-induced BV2 cells” (Bioorg Med Chem Lett, 2025).

Key:
[1] = Cytotoxicity against mouse BV-2 cells assessed as cell viability at 1 uM by MTT assay relative to control; assay type: toxicity, cell-based; details: read-out: Activity
[2] = Cytotoxicity against mouse BV-2 cells assessed as cell viability at 10 uM by MTT assay relative to control; assay type: toxicity, cell-based; details: read-out: Activity
[3] = system: BV-2; experiment: Antiinflammatory activity in LPS induced mouse BV-2 cells assessed as NO production at 1 uM by Griess reagent based assay relative to control
[4] = system: BV-2; experiment: Antiinflammatory activity in LPS induced mouse BV-2 cells assessed as NO production at 10 uM by Griess reagent based assay relative to control

Row | SMILES | viability at 1 µM [1] | viability at 10 µM [2] | level, % of control at 1 µM [3] | level, % of control at 10 µM [4]
1 | C[C@@H]1CCO[C@H]2Cn3cc(C(=O)NCc4ccc(F)cc4F)c(=O)c(O)c3C(=O)N12 [DOLUTEGRAVIR] | 97.5% | 77.6% | 96% | 51.2%
2 | COc1c2n(cc(C(=O)Nc3cccc(-c4cn(-c5cc(C(F)(F)F)ccc5C(F)(F)F)nn4)c3)c1=O)C[C@H]1OC[C@H](C)N1C2=O | 91.9% | 71.1% | 118% | 109%
3 | COc1c2n(cc(C(=O)Nc3ccc(-c4cn(-c5ccc(F)cc5)nn4)cc3)c1=O)C[C@@H]1OCC[C@@H](C)N1C2=O | 103% | 73.3% | 91.9% | 82.1%
4 | CCc1ccccc1-n1cc(-c2cccc(NC(=O)c3cn4c(c(OC)c3=O)C(=O)N3[C@@H](C)CO[C@@H]3C4)c2)nn1 | 99.3% | 46.1% | 107% | 102%
5 | COc1c2n(cc(C(=O)Nc3ccc(-c4cn(-c5cc(C(F)(F)F)cc(C(F)(F)F)c5)nn4)cc3)c1=O)C[C@@H]1OCC[C@@H](C)N1C2=O | 105% | 71.1% | 105% | 99.6%
6 | COc1ccccc1-n1cc(-c2ccc(NC(=O)c3cn4c(c(OC)c3=O)C(=O)N3[C@H](C)CCO[C@H]3C4)cc2)nn1 | 108% | 81.6% | 108% | 107%
7 | COc1c2n(cc(C(=O)Nc3cccc(-c4cn(-c5cc(C(F)(F)F)cc(C(F)(F)F)c5)nn4)c3)c1=O)C[C@H]1OC[C@H](C)N1C2=O | 97.1% | 69.6% | 114% | 97.9%
8 | COc1c2n(cc(C(=O)Nc3ccc(-c4cn(-c5cccc(C(F)(F)F)c5)nn4)cc3)c1=O)C[C@@H]1OCC[C@@H](C)N1C2=O | 105% | 73.8% | 96.8% | 90.5%
9 | COc1c2n(cc(C(=O)Nc3ccccc3-c3cn(-c4c(C)cc(C)cc4C)nn3)c1=O)C[C@@H]1OCC[C@@H](C)N1C2=O | 107% | 113% | 81.4% | 59.1%
10 | COc1c2n(cc(C(=O)Nc3ccccc3-c3cn(-c4ccccc4I)nn3)c1=O)C[C@@H]1OCC[C@@H](C)N1C2=O | 96.7% | 65.8% | 107% | 56.3%
11 | COc1c2n(cc(C(=O)Nc3cccc(-c4cn(-c5ccccc5)nn4)c3)c1=O)C[C@@H]1OCC[C@@H](C)N1C2=O | 104% | 62.3% | 78.6% | 77.3%
12 | COc1c2n(cc(C(=O)Nc3ccc(-c4cn(-c5ccccc5Cl)nn4)cc3)c1=O)C[C@@H]1OCC[C@@H](C)N1C2=O | 100% | 102% | 98.8% | 79.6%
13 | COc1c2n(cc(C(=O)Nc3ccccc3-c3cn(-c4ccccc4Cl)nn3)c1=O)C[C@@H]1OCC[C@@H](C)N1C2=O | 97.9% | 98.3% | 92.4% | 65.9%
14 | COc1c2n(cc(C(=O)Nc3ccc(-c4cn(-c5ccccc5F)nn4)cc3)c1=O)C[C@@H]1OCC[C@@H](C)N1C2=O | 101% | 83% | 98.5% | 87.2%
15 | COc1ccccc1-n1cc(-c2cccc(NC(=O)c3cn4c(c(OC)c3=O)C(=O)N3[C@@H](C)CO[C@@H]3C4)c2)nn1 | 94.1% | 50.4% | 96.5% | 68%
16 | COc1c2n(cc(C(=O)Nc3cccc(-c4cn(-c5cccc(C(F)(F)F)c5)nn4)c3)c1=O)C[C@H]1OC[C@H](C)N1C2=O | 90.7% | 43.6% | 104% | 78.4%
17 | COc1c2n(cc(C(=O)Nc3ccc(-c4cn(-c5cc(C(F)(F)F)ccc5C(F)(F)F)nn4)cc3)c1=O)C[C@@H]1OCC[C@@H](C)N1C2=O | 108% | 109% | 83% | 69%
18 | C[C@@H]1C[C@H]2[C@@H]3CCC4=CC(=O)C=C[C@]4(C)[C@@]3(F)[C@@H](O)C[C@]2(C)[C@@]1(O)C(=O)CO [DEXAMETHASONE] |  |  |  | 65%
19 | COc1c2n(cc(C(=O)Nc3cccc(-c4cn(-c5cccc(C(F)(F)F)c5)nn4)c3)c1=O)C[C@@H]1OCC[C@@H](C)N1C2=O | 47.1% | 16.2% | 99.2% | 2.3%

Row | SMILES | viability at 1 µM [1] | viability at 10 µM [2] | level, % of control at 1 µM [3] | level, % of control at 10 µM [4]
20 | COc1c2n(cc(C(=O)Nc3cccc(-c4cn(-c5ccccc5F)nn4)c3)c1=O)C[C@H]1OC[C@H](C)N1C2=O | 91.9% | 63.8% | 97.9% | 88.7%
21 | COc1c2n(cc(C(=O)Nc3cccc(-c4cn(-c5cc(C(F)(F)F)cc(C(F)(F)F)c5)nn4)c3)c1=O)C[C@@H]1OCC[C@@H](C)N1C2=O | 108% | 71.3% | 81.6% | 71.1%
22 | COc1ccccc1-n1cc(-c2ccccc2NC(=O)c2cn3c(c(OC)c2=O)C(=O)N2[C@H](C)CCO[C@H]2C3)nn1 | 102% | 93.5% | 87.1% | 70.3%
23 | COc1c2n(cc(C(=O)Nc3cccc(-c4cn(-c5cc(C(F)(F)F)ccc5C(F)(F)F)nn4)c3)c1=O)C[C@@H]1OCC[C@@H](C)N1C2=O | 104% | 42% | 80.8% | 43.6%
24 | COc1c2n(cc(C(=O)Nc3ccccc3-c3cn(-c4ccc(C(F)(F)F)cc4)nn3)c1=O)C[C@@H]1OCC[C@@H](C)N1C2=O | 104% | 96.3% | 81% | 84.7%
25 | COc1c2n(cc(C(=O)Nc3cccc(-c4cn(-c5ccccc5Cl)nn4)c3)c1=O)C[C@H]1OC[C@H](C)N1C2=O | 90.7% | 43.6% | 106% | 59.4%
26 | COc1c2n(cc(C(=O)Nc3cccc(-c4cn(-c5ccc(C(F)(F)F)cc5)nn4)c3)c1=O)C[C@H]1OC[C@H](C)N1C2=O | 108% | 63.3% | 102% | 101%
27 | COc1c2n(cc(C(=O)Nc3ccc(-c4cn(-c5ccc(C(F)(F)F)cc5)nn4)cc3)c1=O)C[C@@H]1OCC[C@@H](C)N1C2=O | 53.1% | 45.2% | 77.9% | 76.2%
28 | COc1c2n(cc(C(=O)Nc3cccc(-c4cn(-c5ccccc5)nn4)c3)c1=O)C[C@H]1OC[C@H](C)N1C2=O | 111% | 65.6% | 127% | 132%
29 | COc1c2n(cc(C(=O)Nc3ccccc3-c3cn(-c4ccccc4F)nn3)c1=O)C[C@@H]1OCC[C@@H](C)N1C2=O | 100% | 98.5% | 86.8% | 78.7%
30 | COc1c2n(cc(C(=O)Nc3ccc(-c4cn(-c5c(C)cc(C)cc5C)nn4)cc3)c1=O)C[C@@H]1OCC[C@@H](C)N1C2=O | 106% | 114% | 98.9% | 78.6%
31 | CCc1ccccc1-n1cc(-c2ccc(NC(=O)c3cn4c(c(OC)c3=O)C(=O)N3[C@H](C)CCO[C@H]3C4)cc2)nn1 | 110% | 123% | 118% | 60.2%
32 | COc1c2n(cc(C(=O)Nc3cccc(-c4cn(-c5ccc(F)cc5)nn4)c3)c1=O)C[C@H]1OC[C@H](C)N1C2=O | 109% | 68% | 129% | 120%
33 | COc1c2n(cc(C(=O)Nc3ccc(-c4cn(-c5ccccc5)nn4)cc3)c1=O)C[C@@H]1OCC[C@@H](C)N1C2=O | 104% | 70.2% | 88.8% | 91.4%
34 | COc1c2n(cc(C(=O)Nc3cccc(-c4cn(-c5ccccc5I)nn4)c3)c1=O)C[C@H]1OC[C@H](C)N1C2=O | 99.8% | 48.7% | 143% | 120%
35 | COc1c2n(cc(C(=O)Nc3cccc(-c4cn(-c5ccccc5C(F)(F)F)nn4)c3)c1=O)C[C@@H]1OCC[C@@H](C)N1C2=O | 60.6% | 22.8% | 91.5% | 3.88%
36 | COc1c2n(cc(C(=O)Nc3ccc(-c4cn(-c5ccccc5C(F)(F)F)nn4)cc3)c1=O)C[C@@H]1OCC[C@@H](C)N1C2=O | 103% | 103% | 109% | 91.1%
37 | COc1c2n(cc(C(=O)Nc3cccc(-c4cn(-c5ccccc5C(F)(F)F)nn4)c3)c1=O)C[C@H]1OC[C@H](C)N1C2=O | 97.4% | 42.9% | 103% | 82.3%
38 | COc1c2n(cc(C(=O)Nc3cccc(-c4cn(-c5ccc(C(F)(F)F)cc5)nn4)c3)c1=O)C[C@@H]1OCC[C@@H](C)N1C2=O | 71.5% | 56.3% | 83.7% | 48.3%
